Measured values reported in PubChem BioAssay (NCI).
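These data come from cells grown in 96-well plates and exposed to compound for 48 hours at five concentrations. At the TGI there is no net growth.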

What was measured:
Test in all cases: growth of human tumour cells (NCI), 48 h
[1] = test system: SF-295 CNS
[2] = test system: NCI-H460 lung
[3] = test system: RXF-631 renal
[4] = test system: RXF 393 renal
[5] = test system: LOX IMVI melanoma
[6] = test system: U251 CNS
[7] = test system: DMS 273 small cell lung
[8] = test system: IGROV1 ovarian
[9] = test system: KM12 colon
[10] = test system: SK-OV-3 ovarian
[11] = test system: UO-31 renal
[12] = test system: HOP-62 NSCLC
[13] = test system: SK-MEL-28 melanoma
[14] = test system: KM20L2 colon
[15] = test system: NCI-H522 lung
[16] = test system: COLO 205 colon
[17] = test system: TK-10 renal
[18] = test system: M14 melanoma
[19] = test system: SNB-75 CNS
[20] = test system: SK-MEL-5 melanoma
[21] = test system: HT29 colon
[22] = test system: XF 498 CNS
[23] = test system: EKVX NSCLC
[24] = test system: HCT-15 colon
[25] = test system: OVCAR-4 ovarian
[26] = test system: MOLT-4 leukemia
[27] = test system: SF-539 CNS
[28] = test system: RPMI-8226 leukemia
[29] = test system: SW-620 colon
[30] = test system: SNB-19 CNS
[31] = test system: M19-MEL melanoma
[32] = test system: LXFL 529 NSCLC
[33] = test system: OVCAR-3 ovarian
[34] = test system: A549 NSCLC
[35] = test system: OVCAR-8 ovarian
[36] = test system: UACC-62 melanoma
[37] = test system: MALME-3M melanoma
[38] = test system: OVCAR-5 ovarian
[39] = test system: 786-0 renal
[40] = test system: SF-268 CNS
[41] = test system: NCI-H23 lung
[42] = test system: CCRF-CEM leukemia
[43] = test system: A498 renal
[44] = test system: ACHN renal
[45] = test system: SN12C renal
[46] = test system: UACC-257 melanoma
[47] = test system: CAKI-1 renal
[48] = test system: K-562 leukemia
[49] = test system: DMS 114 small cell lung
[50] = test system: SK-MEL-2 melanoma
[51] = test system: HL-60(TB) leukemia
[52] = test system: DLD-1 colon
[53] = test system: HCC-2998 colon
[54] = test system: HCT-116 colon
[55] = test system: NCI-H226 lung
[56] = test system: HOP-92 NSCLC
[57] = test system: SNB-78 CNS
[58] = test system: SR leukemia

## C=CCN(N=O)C(=O)N(CCCC(NC(C)=O)C(=O)NCc1ccccc1)Cc1ccccc1 (stereo not drawn)
[1]
  TGI: > 100 µM
[2]
  TGI: > 100 µM
[3]
  TGI: > 100 µM
[4]
  TGI: > 100 µM
[5]
  TGI: > 100 µM
[6]
  TGI: > 100 µM
[7]
  TGI: > 100 µM
[8]
  TGI: > 100 µM
[9]
  TGI: > 100 µM
[10]
  TGI: > 100 µM
[11]
  TGI: > 100 µM
[12]
  TGI: > 100 µM
[13]
  TGI: > 100 µM
[14]
  TGI: > 100 µM
[15]
  TGI: 84.8 µM
[16]
  TGI: > 100 µM
[17]
  TGI: > 100 µM
[18]
  TGI: > 100 µM
[19]
  TGI: > 100 µM
[20]
  TGI: 93.8 µM
[21]
  TGI: 82.4 µM
[22]
  TGI: > 100 µM
[23]
  TGI: > 100 µM
[24]
  TGI: > 100 µM
[25]
  TGI: > 100 µM
[26]
  TGI: 58.3 µM
[27]
  TGI: > 100 µM
[28]
  TGI: 59.4 µM
[29]
  TGI: > 100 µM
[30]
  TGI: > 100 µM
[31]
  TGI: > 100 µM
[32]
  TGI: > 100 µM
[33]
  TGI: > 100 µM
[34]
  TGI: > 100 µM
[35]
  TGI: > 100 µM
[36]
  TGI: > 100 µM
[37]
  TGI: > 100 µM
[38]
  TGI: > 100 µM
[39]
  TGI: > 100 µM
[40]
  TGI: > 100 µM
[41]
  TGI: > 100 µM
[42]
  TGI: 95.6 µM
[43]
  TGI: > 100 µM
[44]
  TGI: > 100 µM
[45]
  TGI: > 100 µM
[46]
  TGI: > 100 µM
[47]
  TGI: 83.9 µM
[48]
  TGI: > 100 µM
[49]
  TGI: > 100 µM
[50]
  TGI: > 100 µM
[51]
  TGI: 52.9 µM

## NNC(=O)CCC(=O)Nc1cc(Cl)c(Cl)cc1Cl
[1]
  TGI: > 100 µM
[2]
  TGI: > 100 µM
[3]
  TGI: > 100 µM
[4]
  TGI: > 100 µM
[5]
  TGI: > 100 µM
[6]
  TGI: > 100 µM
[52]
  TGI: > 100 µM
[7]
  TGI: > 100 µM
[8]
  TGI: > 100 µM
[9]
  TGI: > 100 µM
[10]
  TGI: > 100 µM
[11]
  TGI: > 100 µM
[12]
  TGI: > 100 µM
[13]
  TGI: > 100 µM
[14]
  TGI: > 100 µM
[15]
  TGI: > 100 µM
[16]
  TGI: > 100 µM
[17]
  TGI: > 100 µM
[18]
  TGI: > 100 µM
[19]
  TGI: > 100 µM
[20]
  TGI: > 100 µM
[21]
  TGI: > 100 µM
[22]
  TGI: > 100 µM
[24]
  TGI: > 100 µM
[25]
  TGI: > 100 µM
[26]
  TGI: > 100 µM
[27]
  TGI: > 100 µM
[28]
  TGI: > 100 µM
[29]
  TGI: > 100 µM
[30]
  TGI: > 100 µM
[31]
  TGI: > 100 µM
[53]
  TGI: > 100 µM
[32]
  TGI: > 100 µM
[33]
  TGI: > 100 µM
[34]
  TGI: > 100 µM
[35]
  TGI: > 100 µM
[36]
  TGI: > 100 µM
[37]
  TGI: > 100 µM
[38]
  TGI: > 100 µM
[39]
  TGI: > 100 µM
[40]
  TGI: > 100 µM
[54]
  TGI: > 100 µM
[41]
  TGI: > 100 µM
[55]
  TGI: > 100 µM
[42]
  TGI: > 100 µM
[43]
  TGI: > 100 µM
[56]
  TGI: > 100 µM
[57]
  TGI: > 100 µM
[44]
  TGI: > 100 µM
[45]
  TGI: > 100 µM
[46]
  TGI: > 100 µM
[47]
  TGI: > 100 µM
[48]
  TGI: > 100 µM
[49]
  TGI: > 100 µM
[50]
  TGI: > 100 µM
[51]
  TGI: > 100 µM
[58]
  TGI: > 100 µM
